Laboratory results reported in PMC5678437, “A new antagonist for CCR4 attenuates allergic lung inflammation in a mouse model of asthma” (Scientific Reports, 2017).

Assays:
Assay type in all cases: cell-based
CCR6 = molecular target: T1, CCR6 (Homo sapiens, UniProt P51684); assay: Chemotaxis inhibition assay for receptor specificity, HEK293-CCR6; conditions: 0.2, 1, 5, 25 μM, 30 min pretreatment
T1 construct: expressed in transfected cells; host or cells: HEK293, pcDI-CCR6 plasmid made in the authors' laboratory
T1 sequence (P51684 1-374): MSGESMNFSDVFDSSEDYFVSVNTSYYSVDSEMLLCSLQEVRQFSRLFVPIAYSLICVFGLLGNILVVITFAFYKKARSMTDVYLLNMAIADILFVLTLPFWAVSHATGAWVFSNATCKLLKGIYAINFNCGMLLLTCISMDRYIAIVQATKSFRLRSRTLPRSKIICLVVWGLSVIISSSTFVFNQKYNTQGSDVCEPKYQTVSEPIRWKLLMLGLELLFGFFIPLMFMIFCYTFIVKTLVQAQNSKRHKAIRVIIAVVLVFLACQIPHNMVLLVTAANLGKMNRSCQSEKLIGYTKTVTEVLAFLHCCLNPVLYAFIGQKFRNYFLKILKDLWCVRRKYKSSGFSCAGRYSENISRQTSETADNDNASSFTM
Description: (§1) HEK293 cells were transfected with different chemokine receptors. The corresponding chemokines of different receptors were placed in the lower chambers. The transfected cells were pretreated with different concentrations of Compound 8a or 1‰ DMSO for 30 min at a density of 1 × 10^6 cells/ml and added to the upper chambers, the final concentration of the compound is: 0.2 μM, 1 μM, 5 μM, and 25 μM, respectively.

CXCR1 = molecular target: T2, CXCR1 (Homo sapiens, UniProt P25024); assay: Chemotaxis inhibition assay for receptor specificity, HEK293-CXCR1; conditions: 0.2, 1, 5, 25 μM, 30 min pretreatment
T2 construct: expressed in transfected cells; host or cells: HEK293; plasmid gift of Dr. Philip M. Murphy (NIAID, NIH)
T2 sequence (P25024 1-350): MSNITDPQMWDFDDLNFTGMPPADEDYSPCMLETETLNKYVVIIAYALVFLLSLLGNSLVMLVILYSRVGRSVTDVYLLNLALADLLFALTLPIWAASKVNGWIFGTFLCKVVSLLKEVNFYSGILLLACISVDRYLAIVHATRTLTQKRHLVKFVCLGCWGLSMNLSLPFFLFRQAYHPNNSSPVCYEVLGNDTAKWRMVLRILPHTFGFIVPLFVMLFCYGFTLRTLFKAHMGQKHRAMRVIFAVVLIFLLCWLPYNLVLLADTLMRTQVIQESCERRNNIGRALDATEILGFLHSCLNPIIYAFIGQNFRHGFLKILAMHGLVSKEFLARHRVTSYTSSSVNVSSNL
Description: as §1

CXCR4 = molecular target: T3, CXCR4 (Homo sapiens, UniProt P61073); assay: Chemotaxis assay for receptor specificity, HEK293-CXCR4; conditions: compound as chemoattractant in lower chamber, 0.2, 1, 5, 25 μM
T3 construct: expressed in transfected cells; host or cells: HEK293; plasmid from Chinese National Human Genome Center
Description: (§2) HEK293 cells were transfected with different chemokine receptors. Compound 8a with DMSO was diluted to 0.2 mM, 1 mM, 5 mM and 25 mM, and then we used RPMI 1640 medium containing 0.1% BSA for dilution. The final concentration is: 0.2 μM, 1 μM, 5 μM and 25 μM. DMSO was also diluted 1000-fold with 0.1% BSA RPMI 1640 medium. Chemokines was also diluted to an appropriate concentration. The dilutions of Compound 8a, 1‰ DMSO, the corresponding chemokines of different receptors and 0.1% BSA RPMI 1640 medium were placed in the lower chambers (27.5 μl/well). The transfected HEK293 cells were resuspended in the same medium at a density of 1 × 10^6 cells/ml and added to the upper chambers (55 μl/well).

CCR2B = molecular target: T4, CCR2B (Homo sapiens, UniProt P41597); assay: Chemotaxis inhibition assay for receptor specificity, HEK293-CCR2B; conditions: 0.2, 1, 5, 25 μM, 30 min pretreatment
T4 construct: expressed in transfected cells; host or cells: HEK293, pcDB-CCR2B plasmid made in the authors' laboratory
T4 sequence (P41597 1-360 isoform P41597-2): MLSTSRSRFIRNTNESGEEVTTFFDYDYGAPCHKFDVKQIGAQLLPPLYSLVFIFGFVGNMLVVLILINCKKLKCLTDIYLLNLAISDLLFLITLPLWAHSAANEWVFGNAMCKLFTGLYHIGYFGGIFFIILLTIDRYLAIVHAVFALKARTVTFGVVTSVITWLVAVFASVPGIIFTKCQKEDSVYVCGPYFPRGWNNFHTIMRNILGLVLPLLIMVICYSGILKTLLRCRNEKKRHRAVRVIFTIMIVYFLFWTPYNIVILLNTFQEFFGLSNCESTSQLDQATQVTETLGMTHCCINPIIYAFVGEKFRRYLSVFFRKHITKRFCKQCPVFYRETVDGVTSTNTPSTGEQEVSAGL
Description: as §1

CCR7 = molecular target: T5, CCR7 (Homo sapiens, UniProt P32248); assay: Chemotaxis inhibition assay for receptor specificity, HEK293-CCR7; conditions: 0.2, 1, 5, 25 μM, 30 min pretreatment
T5 construct: expressed in transfected cells; host or cells: HEK293, pcDB-CCR7 plasmid made in the authors' laboratory
T5 sequence (P32248 25-378): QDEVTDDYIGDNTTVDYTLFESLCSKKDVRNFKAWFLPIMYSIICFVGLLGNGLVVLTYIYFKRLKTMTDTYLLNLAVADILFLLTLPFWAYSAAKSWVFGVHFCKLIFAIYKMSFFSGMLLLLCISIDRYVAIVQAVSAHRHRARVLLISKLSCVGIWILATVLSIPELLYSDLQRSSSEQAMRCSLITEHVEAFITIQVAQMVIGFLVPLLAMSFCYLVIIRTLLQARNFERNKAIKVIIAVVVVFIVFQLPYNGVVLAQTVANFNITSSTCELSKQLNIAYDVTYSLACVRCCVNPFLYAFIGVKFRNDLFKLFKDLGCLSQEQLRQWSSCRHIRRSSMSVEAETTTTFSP
Description: as §1

CCR1 = molecular target: T6, CCR1 (Homo sapiens, UniProt P32246); assay: Chemotaxis assay for receptor specificity, HEK293-CCR1; conditions: compound as chemoattractant in lower chamber, 0.2, 1, 5, 25 μM
T6 construct: expressed in transfected cells; host or cells: HEK293; plasmid gift of Dr. Philip M. Murphy (NIAID, NIH)
T6 sequence (P32246 1-355): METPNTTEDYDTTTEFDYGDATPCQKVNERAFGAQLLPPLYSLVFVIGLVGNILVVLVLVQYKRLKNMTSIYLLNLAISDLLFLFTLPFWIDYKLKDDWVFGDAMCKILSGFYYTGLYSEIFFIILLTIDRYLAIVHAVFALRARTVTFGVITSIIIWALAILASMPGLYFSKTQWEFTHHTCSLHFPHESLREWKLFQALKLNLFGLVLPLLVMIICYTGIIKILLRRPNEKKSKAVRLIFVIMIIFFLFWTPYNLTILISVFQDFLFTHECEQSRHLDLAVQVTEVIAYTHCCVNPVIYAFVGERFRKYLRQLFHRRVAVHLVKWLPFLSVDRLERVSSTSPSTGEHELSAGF
Description: as §2

T3 sequence (P61073 1-356 isoform P61073-2): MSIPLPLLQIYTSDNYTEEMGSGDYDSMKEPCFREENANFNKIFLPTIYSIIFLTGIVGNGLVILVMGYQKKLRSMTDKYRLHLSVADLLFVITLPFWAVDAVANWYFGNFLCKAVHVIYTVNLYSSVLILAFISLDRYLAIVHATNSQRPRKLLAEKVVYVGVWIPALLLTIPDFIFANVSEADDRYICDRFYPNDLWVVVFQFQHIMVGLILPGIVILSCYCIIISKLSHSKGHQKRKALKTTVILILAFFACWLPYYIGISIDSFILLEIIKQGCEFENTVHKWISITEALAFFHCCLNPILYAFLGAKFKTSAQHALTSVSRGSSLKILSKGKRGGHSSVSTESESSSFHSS

O=C(C1CCCCN1)N1CCN(c2nc(Cl)cc(NCc3ccc(Cl)cc3Cl)n2)CC1 (stereo not drawn) [compound 8a, {4-[4-Chloro-6-(2,4-dichloro-benzylamino)-pyrimidin-2-yl]-piperazin-1-yl}-piperidin-2-yl-methanone]
inhibition of chemotaxis of HEK293-CCR6 to its ligand (CCR6): few influence
inhibition of chemotaxis of HEK293-CXCR1 to its ligand (CXCR1): few influence
chemotaxis effect of the compound on HEK293-CXCR4 (CXCR4): didn’t exert chemotaxis effects
inhibition of chemotaxis of HEK293-CCR2B to its ligand (CCR2B): few influence
inhibition of chemotaxis of HEK293-CCR7 to its ligand (CCR7): few influence
chemotaxis effect of the compound on HEK293-CCR1 (CCR1): didn’t exert chemotaxis effects
